Data on 31 compounds can be found in patent US20170253601A1, “Substituted Pyrrolidine Compounds” (EPIZYME, INC., priority 2014, published 2017).

For orientation: IC50 means the midpoint of a concentration-inhibition curve.

T1 sequence (Q9NRG4 whole entry): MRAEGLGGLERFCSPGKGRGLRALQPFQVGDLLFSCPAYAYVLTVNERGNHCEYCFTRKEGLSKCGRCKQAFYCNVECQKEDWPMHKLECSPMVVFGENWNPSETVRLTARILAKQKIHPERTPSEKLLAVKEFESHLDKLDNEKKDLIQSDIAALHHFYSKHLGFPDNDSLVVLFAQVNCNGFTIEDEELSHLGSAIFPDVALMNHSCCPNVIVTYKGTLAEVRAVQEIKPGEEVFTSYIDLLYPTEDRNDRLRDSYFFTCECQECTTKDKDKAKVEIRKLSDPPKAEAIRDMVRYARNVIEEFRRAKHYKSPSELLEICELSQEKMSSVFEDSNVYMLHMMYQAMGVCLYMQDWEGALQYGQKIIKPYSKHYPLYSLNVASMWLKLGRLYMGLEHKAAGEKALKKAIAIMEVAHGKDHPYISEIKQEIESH

One experiment addresses T1, SMYD2 (Homo sapiens, UniProt Q9NRG4).
T1 construct: Full length SMYD2 (NP 064582.2) was cloned; His6 (N, cleaved yes); FLAG (N); made in house; host or cells: Sf9 insect cells
The experiment can be described thus: SMYD2 Biochemical Assay (3H-SAM, biotinylated peptide substrate, Flashplate). As to conditions: IC50 values are an average of n = 1 to n = 50; read-out: SMYD2 Biochem IC50 (μM)*. The gist of the method:
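Full-length His/FLAG-tagged SMYD2 expressed in Sf9 cells with tag cleaved, 1.5 nM, pre-incubated 30 min at room temperature with compound, then 10 nM 3H-SAM and 60 nM biotinylated peptide added. Buffer 20 mM Bicine pH 7.6, 1 mM TCEP, 0.005% BSG, 0.002% Tween20, 2% DMSO. Stopped with 600 uM cold SAM; 3H-peptide captured on streptavidin Flashplate; IC50 by curve fit.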
As to `COc1ccc(CN2C[C@@H](C)[C@H](NC(=O)c3cc(C4CC4)on3)C2)cc1` (racemic) [compound 149, (±)-trans-5-cyclopropyl-N-[1-[(4-methoxy-phenyl)methyl]-4-methylpyrrolidin-3-yl]-1,2-oxazole-3-carboxamide], the IC50 was 45.6 µM.

Regarding `C[C@@H]1CN(CC2CCOC2)C[C@H]1NC(=O)c1cc(C2CC2)on1` (mixture of isomers) [compound 137, (±)-trans-5-cyclopropyl-N-[4-methyl-1-(oxolan-3-ylmethyl)pyrrolidin-3-yl]-1,2-oxazole-3-carboxamide], the IC50 is greater than 50 µM.

For `C[C@H]1CN(Cc2cccnc2)C[C@H]1NC(=O)c1cc(C2CC2)on1` (racemic) [compound 120, (±)-cis-5-cyclopropyl-N-[4-methyl-1-(pyridin-3-ylmethyl)pyrrolidin-3-yl]-1,2-oxazole-3-carboxamide], the IC50 was 10.6 µM.

For `CCc1nc(C)c(CN2C[C@H](C)[C@H](NC(=O)c3cc(C4CC4)on3)C2)[nH]1` (racemic) [compound 196, (±)-cis-5-cyclopropyl-N-(1-[(2-ethyl-4-methyl-1H-imidazol-5-yl)methyl]-4-methylpyrrolidin-3-yl)-1,2-oxazole-3-carboxamide], the IC50 stood at 35.5 µM.

As to `CC(C)N1C[C@@H](NC(=O)c2cc(C3CC3)on2)C[C@H]1COCC#Cc1ccccc1` (stereo in doubt) [compound 240, (±)-cis-5-cyclopropyl-N-[(5-{[(3-phenylprop-2-yn-1-yl)oxy]methyl}-1-(propan-2-yl)pyrrolidin-3-yl]-1,2-oxazole-3-carboxamide], the IC50 is greater than 50 µM.

Consider `C[C@@H]1CN(c2cccnc2)C[C@H]1NC(=O)c1cc(C2CC2)on1` (racemic) [compound 309, (±)-trans-5-cyclopropyl-N-[4-methyl-1-(pyridin-3-yl)pyrrolidin-3-yl]-1,2-oxazole-3-carboxamide], for which the IC50 was greater than 50 µM.

`CC(C)N1C[C@@H](C)[C@@H](NC(=O)c2cc(C3CC3)on2)C1` [compound 234, 5-cyclopropyl-N-[(3R,4R)-4-methyl-1-(propan-2-yl)pyrrolidin-3-yl]-1,2-oxazole-3-carboxamide]: the IC50 was found to be 0.682 µM.

With `COc1cc(CN2C[C@@H](C)[C@H](NC(=O)c3cc(C4CC4)on3)C2)cc(OC)c1` (racemic) [compound 181, (±)-trans-5-cyclopropyl-N-[1-[(3,5-dimethoxy-phenyl)methyl]-4-methylpyrrolidin-3-yl]-1,2-oxazole-3-carboxamide], the IC50 was greater than 50 µM.

As to `C[C@@H]1CN(c2ccc(Cl)cc2)C[C@H]1NC(=O)c1cc(C2CC2)on1` (racemic) [compound 298, (±)-trans-N-[1-(4-chloro-phenyl)-4-methyl-pyrrolidin-3-yl]-5-cyclopropyl-1,2-oxazole-3-carboxamide], the IC50 is greater than 50 µM.

With `CC(Cc1ccc2c(c1)OCO2)CN1C[C@H](C)[C@H](NC(=O)c2cc(C3CC3)on2)C1` (relative stereo) [compound 323, cis-N-{1-[2-(2H-1,3-benzodioxol-5-ylmethyl)propyl]-4-methylpyrrolidin-3-yl}-5-cyclopropyl-1,2-oxazole-3-carboxamide], the IC50 is 9.31 µM.

In the case of `Cc1nc[nH]c1CN1C[C@H](C)[C@H](NC(=O)c2cc(C3CC3)on2)C1` (racemic) [compound 320, (±)-cis-5-cyclopropyl-N-{4-methyl-1-[(4-methyl-1H-imidazol-5-yl)methyl]pyrrolidin-3-yl}-1,2-oxazole-3-carboxamide], the concentration for half-maximal inhibition (IC50) is 11.6 µM.

For `C[C@H]1CN(Cc2cc(Cl)cnc2Cl)C[C@H]1NC(=O)c1cc(C2CC2)on1` (racemic) [compound 232, (±)-cis-5-cyclopropyl-N-[1-[(2,5-dichloro-pyridin-3-yl)methyl]-4-methylpyrrolidin-3-yl]-1,2-oxazole-3-carboxamide], the IC50 was found to be 36.1 µM.

Consider `CC(C)N1C[C@H](C)[C@H](NC(=O)c2cc(C3CCC3)on2)C1` (racemic) [compound 248, (±)-cis-5-cyclobutyl-N-[4-methyl-1-(propan-2-yl)pyrrolidin-3-yl]-1,2-oxazole-3-carboxamide], for which the IC50 amounted to 10.5 µM.

With `C[C@@H]1CN(c2ccnc(N)n2)C[C@H]1NC(=O)c1cc(C2CC2)on1` (racemic) [compound 314, (±)-trans-N-[1-(2-amino-pyrimidin-4-yl)-4-methylpyrrolidin-3-yl]-5-cyclopropyl-1,2-oxazole-3-carboxamide], the IC50 was greater than 50 µM.

For the compound `C[C@H]1CN(Cc2ccc3ncccc3c2)C[C@H]1NC(=O)c1cc(C2CC2)on1` (racemic) [compound 332, (±)-cis-5-cyclopropyl-N-[4-methyl-1-(quinolin-6-ylmethyl)pyrrolidin-3-yl]-1,2-oxazole-3-carboxamide], the IC50 is 24.2 µM.

On to `C[C@H](c1ccccc1)N1C[C@@H](CO)[C@H](NC(=O)c2cc(C3CC3)on2)C1` [compound 119, 5-cyclopropyl-N-[(3S,4R)-4-(hydroxymethyl)-1-[(1R)-1-phenylethyl]pyrrolidin-3-yl]-1,2-oxazole-3-carboxamide], for which the IC50 stood at 38.2 µM.

`C[C@H]1CN(Cc2cccc3cccnc23)C[C@H]1NC(=O)c1cc(C2CC2)on1` (racemic) [compound 266, (±)-cis-5-cyclopropyl-N-[4-methyl-1-(quinolin-8-ylmethyl)pyrrolidin-3-yl]-1,2-oxazole-3-carboxamide]: the IC50 was found to be 12.3 µM.

With `CC(c1cc(C(=O)N[C@@H]2CN(C(C)C)C[C@@H]2C)no1)C(F)F` (relative stereo) [compound 344, cis-5-(1,1-difluoropropan-2-yl)-N-[4-methyl-1-(propan-2-yl)pyrrolidin-3-yl]-1,2-oxazole-3-carboxamide], the IC50 was found to be 10.2 µM.

Consider `Cc1cc(CN2C[C@H](C)[C@H](NC(=O)c3cc(C4CC4)on3)C2)oc1C` (racemic) [compound 268, (±)-cis-5-cyclopropyl-N-{1-[(4,5-dimethyl-furan-2-yl)methyl]-4-methylpyrrolidin-3-yl]-1,2-oxazole-3-carboxamide], for which the IC50 is 5.3 µM.

On to `C[C@@H]1CN(CC2CCN(C)CC2)C[C@H]1NC(=O)c1cc(C2CC2)on1` (racemic) [compound 158, (±)-trans-5-cyclopropyl-N-[4-methyl-1-[(1-methylpiperidin-4-yl)methyl]pyrrolidin-3-yl]-1,2-oxazole-3-carboxamide], for which the IC50 is greater than 50 µM.

As to `C[C@@H]1CN(CC(F)F)C[C@H]1NC(=O)c1cc(C2CC2)on1` (racemic) [compound 215, (±)-trans-5-cyclopropyl-N-[1-(2,2-difluoro-ethyl)-4-methylpyrrolidin-3-yl]-1,2-oxazole-3-carboxamide], the IC50 was greater than 50 µM.

Turning to `C[C@@H]1CN(c2ccccn2)C[C@H]1NC(=O)c1cc(C2CC2)on1` (racemic) [compound 312, (±)-trans-5-cyclopropyl-N-[4-methyl-1-(pyridin-2-yl)pyrrolidin-3-yl]-1,2-oxazole-3-carboxamide], the IC50 was greater than 50 µM.

With `C[C@H]1CN(Cc2cccc3[nH]ncc23)C[C@H]1NC(=O)c1cc(C2CC2)on1` (racemic) [compound 265, (±)-cis-5-cyclopropyl-N-[1-(1H-indazol-4-ylmethyl)-4-methylpyrrolidin-3-yl]-1,2-oxazole-3-carboxamide], the IC50 is 4.89 µM.

Still in this experiment, the particulars now being: Table 1; average of n = 1 to n = 50; read-out: SMYD2 Biochem IC50.
In the case of `CCc1cc(C(=O)N[C@@H]2CN(C3CC3)C[C@@H]2C)no1` (racemic) [compound 112, (±)-cis-N-(1-cyclopropyl-4-methylpyrrolidin-3-yl)-5-ethyl-isoxazole-3-carboxamide], the IC50 was determined as 9.4 µM.

Turning to `CC(C)N1C[C@H](NC(=O)c2cc(C3CC3)on2)[C@@H](C)C1` [compound 42, 5-cyclopropyl-N-((3R,4S)-1-isopropyl-4-methyl-pyrrolidin-3-yl)isoxazole-3-carboxamide], the IC50 is 1.9 µM.

Take `CN1C[C@@H](O)[C@H](NC(=O)c2cc(C3CC3)on2)C1` (racemic) [compound 40, (±)-trans-5-cyclopropyl-N-(-4-hydroxy-1-methylpyrrolidin-3-yl)isoxazole-3-carboxamide]: the IC50 is greater than 50 µM.

Still in this experiment, the particulars now being: Table 2; average of n = 1 to n = 50; read-out: SMYD2 Biochem IC50.
Consider `C[C@@H]1CN(C2CCN(C(=O)OC(C)(C)C)CC2)C[C@@H]1NC(=O)c1cc(C2CC2)on1` (racemic) [compound 80, (±)-cis-tert-butyl 4-(3-(5-cyclopropylisoxazole-3-carboxamido)-4-methylpyrrolidin-1-yl)piperidine-1-carboxylate], for which the IC50 came out at 30.5 µM.

For the compound `C[C@@H]1CN(CCN)C[C@H]1NC(=O)c1cc(C2CC2)on1` (racemic) [compound 101, (±)-trans-N-(1-(2-aminoethyl)-4-methylpyrrolidin-3-yl)-5-cyclopropylisoxazole-3-carboxamide], the IC50 was greater than 50 µM.

`C[C@@H]1CN(C2CCS(=O)(=O)CC2)C[C@@H]1NC(=O)c1cc(C2CC2)on1` (racemic) [compound 74, (±)-cis-5-cyclopropyl-N-(1-(1,1-dioxidotetrahydro-2H-thiopyran-4-yl)-4-methylpyrrolidin-3-yl)isoxazole-3-carboxamide]: the IC50 amounted to 14 µM.

`C[C@@H]1CN(S(=O)(=O)C2CCNCC2)C[C@@H]1NC(=O)c1cc(C2CC2)on1` (racemic) [compound 67, (±)-cis 5-cyclopropyl-N-(4-methyl-1-(piperidin-4-ylsulfonyl)pyrrolidin-3-yl)isoxazole-3-carboxamide]: the concentration for half-maximal inhibition (IC50) is greater than 50 µM.

For `C[C@@H]1CN(C2CCN(C)CC2)C[C@@H]1NC(=O)c1cc(C2CC2)on1` (racemic) [compound 82, (±)-cis-5-cyclopropyl-N-(4-methyl-1-(1-methylpiperidin-4-yl)pyrrolidin-3-yl)isoxazole-3-carboxamide], the concentration for half-maximal inhibition (IC50) is greater than 50 µM.
